According to US20250134845A1, “Fumaric Acid Esters, Inhalation Administration Methods, Pharmaceutical Uses and Compositions” (Emory University, priority 2022, published 2025):
Structures can show the parent of a compound that is named as a salt.

Columns and labels:
IPF lung fibroblasts [1] = conditions: sulforaphane treatment (Nrf2 activation); cited from earlier work
[2] = system: oxidative stress (ROS, oxidized glutathione, lipid peroxidation); experiment: Blood ROS, lung oxidized glutathione and lung lipid peroxidation in aged-injured mice; type: in vivo, mouse; conditions: for blood ROS levels: aged-injured mice
Protocol: Oral-DMF (n=7); intranasal-DMF (n=6).
Oral-vehicle (n=5); oral-DMF (n=5); intranasal-vehicle (n=3); intranasal-DMF (n=4).
Oral-vehicle (n=5); oral-DMF, (n=5); intranasal-vehicle (n=4); intranasal-DMF (n=3).
(§1) At 3 weeks post-bleomycin administration, mice were randomly assigned to one of four treatment groups. Between 3-6 weeks post-injury, DMF or vehicle (sterile PBS) was administered daily by oral gavage (240 μg/dose in 150 μL total volume) (Table 1) using a gavage tube. In parallel, mice were anesthetized using isoflurane and administered DMF or vehicle (sterile PBS) daily by intranasal instillation (80 μg/dose in 50 μL total volume) (Table 1). The control animals received vehicle only. Dosing was based on the solubility of this compound in the vehicle in the total volume used for administration (DMF was dissolved in sterile PBS at 42° C. and sonicated for 50 min). Mice were monitored for body-weight changes and survival. Mice were removed from the study when greater than 20% weight loss was observed compared to pre-surgery (day 0) or lack of responsiveness to touch. At 6 weeks post-injury, mice were sacrificed by CO2 inhalation.
(§2) In summary, lung-targeted treatment with DMF via inhaled delivery (as compared to oral delivery) can more effectively rescue local Nrf2 expression levels and promote redox homeostasis in the lungs.

IPF lung fibroblasts [3] = experiment: Collagen-1 expression in IPF lung fibroblasts (Western blot, densitometry); type: cell-based, human; conditions: vs vehicle
Description: Since primary mesenchymal cells isolated from IPF lungs represent a heterogeneous population of both fibroblasts and myofibroblasts “(myo)fibroblasts”, the efficacy of DMF was evaluate on both TGF-beta-induced and established profibrogenic phenotypes of these cells. […]

IPF lung fibroblasts [4] = experiment: H2O2 production in IPF lung fibroblasts (Amplex Red assay); type: cell-based, human; conditions: 24 h
Protocol: IPF lung fibroblasts were treated with DMF (1 μM) or vehicle (DMSO) followed by treatment TGF-b (2 ng/ml). H2O2 levels were evaluated at 24 h by Amplex™ Red assay.
Culture supernatant was evaluated for H2O2 levels at 24 h by Amplex™ Red assay.
Since primary mesenchymal cells isolated from IPF lungs represent a heterogeneous population of both fibroblasts and myofibroblasts “(myo)fibroblasts”, the efficacy of DMF was evaluate on both TGF-beta-induced and established profibrogenic phenotypes of these cells. To determine if DMF treatment can inhibit fibrogenic responses induced by TGF-beta, cells were pre-treated with DMF or vehicle followed by treatment with TGF-beta for 24 h.

Nrf2 = experiment: Lung Nrf2 expression in aged-injured mice (densitometric analysis); type: in vivo, mouse
Protocol: Oral-vehicle (n=7); oral-DMF (n=7); intranasal-vehicle (n=4); intranasal-DMF (n=4).
as §1, §2

[5] = system: aged mice with bleomycin-induced persistent lung fibrosis; experiment: Aging murine model of bleomycin-induced persistent lung fibrosis: reversal of established fibrosis; type: in vivo, mouse; conditions: 3-6 weeks post-injury
Protocol: as §1, with “C57BL/6 aged (18 month) female mice received an intratracheal instillation of bleomycin (0.02875 U/mouse). DMF was administered daily by oral gavage (240 μg/150 μL in sterile PBS/mouse) or intranasal instillation (80 μg/50 μL in sterile PBS/mouse) from 3-6 weeks post-injury. Lung tissue was assessed by hematoxylin and eosin (H&E) staining for histopathology and Masson's trichrome blue staining for collagen. […] At 3” for “At 3”, “CO2 inhalation. This aging model of bleomycin-induced persistent lung fibrosis enables the evaluation of therapeutic agents for their efficacy in reversing age-dependent established fibrosis. […] Using the same injury model and treatment protocol, aged mice were administered DMF or vehicle daily via intranasal delivery from 3-6 weeks post-injury.” for “CO2 inhalation.”

[6] = intranasal delivery, 80 μg/dose daily, vs vehicle or oral DMF
[7] = intranasal 80 μg/dose daily, vs vehicle and oral DMF
[8] = oral gavage 240 μg/dose daily, aged mice

Q: Which “antioxidant responses in IPF lung fibroblasts” value (IPF lung fibroblasts [1]) does the source give for `C[S+]([O-])CCCCN=C=S` (stereo not shown) [sulforaphane] here?
A: restored antioxidant responses

Q: And the “dedifferentiation of IPF myofibroblast” value (IPF lung fibroblasts [1])?
A: promoted dedifferentiation

Q: Which “blood ROS levels” value ([2]; intranasal delivery, 80 μg/dose daily) does the source give for `COC(=O)/C=C/C(=O)OC` [DMF, dimethyl fumarate] here?
A: did not impact

Q: And the lung lipid peroxidation [2, 6]?
A: significantly reduced

Q: What about the “lung oxidized glutathione levels” value [2, 6] of the same compound?
A: significantly reduced

Q: What about the “blood ROS levels” value ([2]; oral administration, 240 μg/dose daily) of the same compound?
A: reduced blood ROS levels

Q: And the “TGF-beta-induced expression of collagen-1” value (IPF lung fibroblasts [3]; DMF 1 μM pre-treatment, then TGF-b 2 ng/ml, 48 h)?
A: inhibition

Q: And the “production of collagen-1 (established pro-fibrotic phenotype)” value (IPF lung fibroblasts [3]; DMF 1 μM, no TGF-beta, 24 h)?
A: significantly inhibited

Q: What about the “TGF-beta-induced production of ROS, specifically H2O2” value (IPF lung fibroblasts [4]; DMF 1 μM pre-treatment, then TGF-b 2 ng/ml, vs vehicle (DMSO)) of the same compound?
A: significantly reduced

Q: And the “production of H2O2 (established pro-fibrotic phenotype)” value (IPF lung fibroblasts [4]; DMF 1 μM, no TGF-beta, culture supernatant, vs vehicle)?
A: significantly inhibited

Q: And the “lung Nrf2 expression levels” value (Nrf2; intranasal delivery, 80 μg/dose daily, aged-injured mice)?
A: significantly increased

Q: And the “lung Nrf2 expression levels” value (Nrf2; oral administration, 240 μg/dose daily, aged mice with established fibrosis)?
A: failed to rescue

Q: And the “resolution of age-dependent established lung fibrosis (histopathology)” value ([5]; intranasal 80 μg/dose daily, aged mice)?
A: resulted in resolution

Q: And the “lung collagen deposition (Masson's trichrome)” value [5, 7]?
A: reduced collagen deposition

Q: And the “lung collagen-1 expression levels” value [5, 7]?
A: significantly decreased

Q: What about the “lung fibronectin expression levels” value [5, 7] of the same compound?
A: significantly decreased

Q: What about the lung hydroxyproline levels [5, 7] of the same compound?
A: decreased lung hydroxyproline levels

Q: And the “lung fibrosis compared with vehicle-treated mice” value [5, 8]?
A: indistinguishable from vehicle-treated mice

Q: What about the “resolution of age-dependent established lung fibrosis” value [5, 8] of the same compound?
A: failed to promote the resolution
